# Data taken from US20240109903A1, “SUBSTITUTED HETEROCYCLES FOR TREATING CANCER” (Northwestern University, priority 2022, published 2024).
# Read-outs that look alike come from different tables or passages of the source.
# Key:
# [1] = test system: HOP-92; test: NCI 60 five-dose screen HOP-92; assay type: cell-based; details: Homo sapiens, five-dose
# [2] = test system: RXF 393; test: NCI 60 five-dose screen RXF 393; assay type: cell-based; details: Homo sapiens, five-dose
# [3] = test system: NCI-H522; test: NCI 60 five-dose screen NCI-H522; assay type: cell-based; details: Homo sapiens, five-dose
# [4] = test system: CCRF-CEM; test: NCI 60 five-dose screen CCRF-CEM; assay type: cell-based; details: Homo sapiens, five-dose
# [5] = test system: NCI-H226; test: NCI 60 five-dose screen NCI-H226; assay type: cell-based; details: Homo sapiens, five-dose
# [6] = test system: IGROV1; test: NCI 60 five-dose screen IGROV1; assay type: cell-based; details: Homo sapiens, IGROV-1, five-dose
# [7] = test system: EKVX; test: NCI 60 five-dose screen EKVX; assay type: cell-based; details: Homo sapiens, five-dose
# [8] = test system: MCF7; test: NCI 60 five-dose screen MCF7; assay type: cell-based; details: Homo sapiens, five-dose
# [9] = test system: HCT-15; test: NCI 60 five-dose screen HCT-15; assay type: cell-based; details: Homo sapiens, five-dose
# [10] = test system: BT-549; test: NCI 60 five-dose screen BT-549; assay type: cell-based; details: Homo sapiens, five-dose
# [11] = test system: HCT-116; test: NCI 60 five-dose screen HCT-116; assay type: cell-based; details: Homo sapiens, five-dose
# [12] = test system: OVCAR-8; test: NCI 60 five-dose screen OVCAR-8; assay type: cell-based; details: Homo sapiens, five-dose
# [13] = test system: MV-4-11 acute myeloid leukemia cells; test: CellTiter-Glo 2.0 cell viability, MV-4-11; assay type: cell-based; details: Homo sapiens
# Procedure: 2019 October; 94(4): 1813-1823.
# Cell viability was assessed using the CellTiter-Glo 2.0 assay from Promega, which yields a signal proportional to the amount of ATP present in a cell population. Compounds were first dispensed into empty 96-well flat-bottom tissue culture-treated plates (Corning) using an Echo550. MV4-1 cells were diluted to a density of 0.1 million cells per ml, pipetted onto the compounds at a density of 1,000 cells per well for U937 and 3,000 cells per well for MV4-11, mixed, and incubated for 3 days at 37° C. with 5% C02. After incubating, 5 μl of cells from each well were added to 5 μl of CellTiter-Glo 2.0 reagent in a384-well white ProxiPlate (PerkinElmer), incubated for 20 minutes at ambient temperature, and luminescence was analyzed on an EnSpire plate reader. Graphing and regression analysis was performed in Graphpad Prism.
# [14] = test system: SF-268; test: NCI 60 five-dose screen SF-268; assay type: cell-based; details: Homo sapiens, five-dose
# [15] = test system: 786-0; test: NCI 60 five-dose screen 786-0; assay type: cell-based; details: Homo sapiens, five-dose
# [16] = test system: NCI/ADR-RES; test: NCI 60 five-dose screen NCI/ADR-RES; assay type: cell-based; details: Homo sapiens, five-dose
# [17] = test system: K-562; test: NCI 60 five-dose screen K-562; assay type: cell-based; details: Homo sapiens, K562, five-dose
# [18] = test system: NCI-H460; test: NCI 60 five-dose screen NCI-H460; assay type: cell-based; details: Homo sapiens, five-dose
# [19] = test system: full NCI 60 cell panel; test: NCI 60 Cell One-dose screen; assay type: cell-based, human; details: single high dose 10^−5 M, NCI 60 panel
# Source text: Compounds were submitted to the NCI 60 Cell screen and tested at a single high dose (10^−5 M) in the full NCI 60 cell panel (see the following reference for details of using NCI 60 human tumor cell lines for screening anticancer drugs: Shoemaker R H. The NCI60 human tumor cell line anticancer drug screen. Nature Rev Cancer 2006; 6: 813-23). The One-dose data is reported as a mean graph of the percent growth of treated cells. The number reported for the One-dose assay is growth relative to the no-drug control, and relative to the time zero number of cells. This allows detection of both growth inhibition (values between 0 and 100) and lethality (values less than 0). For example, a value of 100 means no growth inhibition. A value of 40 would mean 60% growth inhibition. A value of 0 means no net growth over the course of the experiment. A value of −40 would mean 40% lethality. A value of −100 means all cells are dead. FIGS. 1-8 show the mean graph of percent growth against the NCI-60 cell panel for NUCC-0226674, NUCC-0226679, NUCC-0226680, NUCC-0226683, NUCC-0226689, NUCC-0226694, NUCC-0226695, and NUCC-0226698.
# [20] = test system: CAKI-1; test: NCI 60 five-dose screen CAKI-1; assay type: cell-based; details: Homo sapiens, five-dose
# [21] = read-out: LC50 (the source's name) (converted)
# [22] = read-out: LC50 (the source's name)
structure (smiles),measurement,setting,value
FC(F)(F)c1cc2c(Cl)ncnc2n1CCN1CCCCC1 [NUCC-0226679],GI50,[1],19.5 µM
same,IC50,[1],63.1 µM
same,IC (TGI),[1],53.7 µM
same,CC50,[1]; [21],≥ 100 µM
same,GI50,[2],15.5 µM
same,IC50,[2],45.7 µM
same,IC (TGI),[2],40.7 µM
same,CC50,[2]; [21],≥ 100 µM
same,GI50,[3],1.7 µM
same,IC50,[3],3.24 µM
same,IC (TGI),[3],3.47 µM
same,GI50,[4],11 µM
same,IC50,[4],74.1 µM
same,IC (TGI),[4],100 µM
same,CC50,[4]; [22],≥ 100 µM
same,GI50,[5],60.3 µM
same,IC50,[5],100 µM
same,IC (TGI),[5],100 µM
same,CC50,[5]; [21],≥ 100 µM
same,GI50,[6],2.95 µM
same,IC50,[6],4.37 µM
same,IC (TGI),[6],10.2 µM
same,CC50,[6]; [21],38 µM
same,GI50,[7],16.2 µM
same,IC50,[7],51.3 µM
same,IC (TGI),[7],85.1 µM
same,CC50,[7]; [21],≥ 100 µM
same,GI50,[8],19.5 µM
same,IC50,[8],30.2 µM
same,IC (TGI),[8],75.9 µM
same,CC50,[8]; [21],≥ 100 µM
same,GI50,[9],3.16 µM
same,IC50,[9],4.17 µM
same,IC (TGI),[9],12.9 µM
same,CC50,[9]; [21],55 µM
same,GI50,[10],15.1 µM
same,IC50,[10],30.2 µM
same,IC (TGI),[10],29.5 µM
same,CC50,[10]; [21],58.9 µM
same,GI50,[11],4.9 µM
same,IC50,[11],6.03 µM
same,IC (TGI),[11],20.4 µM
same,CC50,[11]; [21],67.6 µM
same,GI50,[12],12.6 µM
same,IC50,[12],20.4 µM
same,IC (TGI),[12],33.1 µM
same,CC50,[12]; [21],87.1 µM
same,IC50,"[13]; MV4-11, 72 h, MV-4-11 cells, 3 days, CellTiter-Glo 2.0, read-out: IC50 (uM) [Cell Type: MV-4-11]",0.675 µM
same,IC50,"[13]; MV4-11, bound stated in text, read-out: IC50 against MV-4-11 acute myeloid leukemia cells",< 2 µM
same,GI50,[14],16.2 µM
same,IC50,[14],30.9 µM
same,IC (TGI),[14],38.9 µM
same,CC50,[14]; [21],93.3 µM
same,GI50,[15],39.8 µM
same,IC50,[15],66.1 µM
same,IC (TGI),[15],100 µM
same,CC50,[15]; [21],≥ 100 µM
same,GI50,[16],24 µM
same,IC50,[16],42.7 µM
same,IC (TGI),[16],64.6 µM
same,CC50,[16]; [21],≥ 100 µM
same,GI50,[17],2.88 µM
same,IC50,[17],3.63 µM
same,IC (TGI),[17],100 µM
same,CC50,[17]; [22],≥ 100 µM
same,GI50,[18],18.2 µM
same,IC50,[18],26.3 µM
same,IC (TGI),[18],50.1 µM
same,CC50,[18]; [21],≥ 100 µM
same,growth inhibition in the One-Dose Screen,[19],significant growth inhibition
same,GI50,[20],25.1 µM
same,IC50,[20],47.9 µM
same,IC (TGI),[20],100 µM
same,CC50,[20]; [21],≥ 100 µM
